A word on the IC50: it is the concentration that gives 50% inhibition. Read a low IC50 as higher potency.

SMILES strings stand for the structures.

For the assay, the species on record is Rattus norvegicus. The experiment in a line: Inhibition of [3H]norepinephrine uptake was determined in rat brain synaptosomal preparation. The assay is classed as functional.
Take `N[C@H]1CCc2ccccc2C1` (racemic): the IC50 amounted to 850 nM. That is a sub-micromolar value.

Consider `CC[C@H](N)Cc1ccccc1` (racemic), for which the half-maximal inhibitory concentration (IC50) worked out at 6500 nM.

`N[C@H]1C=Cc2ccccc2C1` (racemic): the IC50 was 650 nM. This IC50 lies about 10-fold lower than the previous one.

The molecule `CC(N)Cc1ccccc1` (racemic) registered an IC50 of 490 nM. The IC50 values of the last two molecules are within 1.5-fold of each other.

These data come from ChEMBL document CHEMBL1121983, “Conformational requirements for norepinephrine uptake inhibition by phenethylamines in brain synaptosomes. Effects of alpha-alkyl substitution” (J Med Chem, 1982).
